In patent publication US20150283152A1, “Levonorgestrel-Only-Composition For Optimized Oral Contraception With Defined Levonorgestrel Content, Dosage Regimen And Pharmaceutical Preparation” (NAARI AG, priority 2012, published 2015):

What was measured:
[1] = tested on: immature male Wistar-rats; experiment: Weight of gonads in immature male rats (antigonadotrophic effect); format: in vivo, rat; details: final control 873.5 ± 62.5, p < 0.05
Excerpt: The influence of levonorgestrel on the secretion of gonadotrophins from the pituitary can be estimated by recording the dose-effect relationships in reducing the weight of the gonads of immature male rats. [table]

[2] = tested on: New Zealand-rabbits; experiment: Pre-ovulatory repeated oral levonorgestrel, rate of fertilized eggs in rabbits (ovulation induced by PMSG/hCG); format: in vivo, rabbit; details: for % fertilized (cleaved) eggs: control 90.6
Excerpt: On the last day of LNG-administration, the ovulation was “forced” by intravenous (i.v.) injection of human chorionic gonadotropin (hCG). […] [table]

[3] = tested on: women; details: without estrogen; cited from earlier work
[4] = Martinez F et al. 2012; cited from earlier work
[5] = tested on: Luteinizing Hormone (LH); experiment: Serum levels of Luteinizing Hormone in male castrated rats (radioimmunoassay); format: in vivo, rat; details: gonadectomized control 127.0 ± 11.0, p < 0.05
[6] = tested on: female paired Wistar-rats; experiment: Post-ovulatory subcutaneous levonorgestrel, fertility of female paired rats; format: in vivo, rat
Procedure: Whereas 20 mg/kg bodyweight (b.w.). […] [table]

[7] = total dosage 0.35 mg/animal p.o. over 3 days
[8] = total dosage 1.75 mg/animal p.o. over 3 days
[9] = s.c. days 1-4 p.i., total dose 0.2 mg/animal/4 days
[10] = s.c. days 1-4 p.i., total dose 2.0 mg/animal/4 days
[11] = s.c. once Day 1 p.i., total dose 4.0 mg/animal

C#C[C@]1(O)CC[C@H]2[C@@H]3CCC4=CC(=O)CC[C@@H]4[C@H]3CC[C@@]21CC [levonorgestrel]
Gonadal weight/mg Mean ± (S.E.M.) ([1]; total dose 0.14 mg/animal over 14 d s.c.): 579.7 ± 44.7 mg | Gonadal weight/mg Mean ± (S.E.M.) ([1]; total dose 0.42 mg/animal over 14 d s.c.): 385.7 ± 74.3 mg | Gonadal weight/mg Mean ± (S.E.M.) ([1]; total dose 1.40 mg/animal over 14 d s.c.): 180.8 ± 105.5 mg | Total no. of eggs vs. total no. of fertilized (cleaved) eggs [2, 7]: 92/78 | % fertilized (cleaved) eggs [2, 7]: 84.8% | Total no. of eggs vs. total no. of fertilized (cleaved) eggs [2, 8]: 81/49 | % fertilized (cleaved) eggs [2, 8]: 60.5% | % fertilized (cleaved) eggs ([2]; total dosage 5.25 mg/animal p.o. over 3 days): 54.5% | daily dosage leading to non-acceptable bleeding irregularities [3]: over 0.125 mg | risk of venous thromboembolism (VTE) [4]: currently the safest progestin | Luteinizing Hormone ng/mL serum ([5]; total dose 0.14 mg/animal/14 d s.c.): 68.4 ± 15.4 ng/mL serum | Luteinizing Hormone ng/mL serum ([5]; total dose 1.40 mg/animal/14 d s.c.): 2.2 ± 0.3 ng/mL serum | No. of treated animals vs. no. of intact pregnancies [6, 9]: 10/9 | Pregnancy inhibition (%) [6, 9]: 10% | No. of treated animals vs. no. of intact pregnancies [6, 10]: 10/0 | Pregnancy inhibition (%) [6, 10]: 100% | No. of treated animals vs. no. of intact pregnancies [6, 11]: 12/12 | Pregnancy inhibition (%) [6, 11]: 0%
